Source: PMC10449621, “Engineering cellular communication between light-activated synthetic cells and bacteria” (Nature Chemical Biology, 2023)
Values joined by “and” are separate entries in the source; they are usually repeats but may differ in a detail not shown here. Identical values can stand only once.

Legend:
Assay type in all cases: cell-based, E. coli XL10-Gold
[1] = test system: BjaRS107R (B0033|ATG) receiver cells; experiment: IV-HSL biosynthesis by BjaI-expressing synthetic cells (GUVs), quantified with receiver cells; conditions: 10 nM IV-HSL control, Dilution -, sheet 4d
[2] = test system: BjaRWT (B0034|CTG) receiver cells; experiment: BjaR receiver cell AHSL dose-response (gfp reporter, plate reader)
Description: (§1) These findings are consistent with the predicted translation initiation rates of the respective sequences—translation from the BBa_B0033 RBS provides 1% of protein yield compared to the BBa_B0034 RBS, just as an CTG start codon provides 1% of the protein yield compared to an ATG start codon[30],[31]. This also offers support as to why the ON-state gfp expression level increased in variants with a tighter OFF-state; more cellular resources were available for GFP synthesis when comparatively fewer were allocated to BjaR synthesis. To elucidate the impact of the S107R variant on gene circuit performance, we introduced the S107R variant alone back into the bjaRWT gene, in the context of the BBa_B0033 RBS background.
(§2) The BjaR reporter plasmids were retransformed into E. coli XL10-Gold cells for each experiment. A single colony was used to inoculate 5 ml LB + Amp media and incubated at 37 °C, 225 r.p.m. overnight. Overnight cultures were diluted 1/250 or 1/500 in 5 ml M9 minimal media + Amp and incubated at 37 °C, 225 r.p.m. for 3 h and 45 min (until OD600 = ~0.075). Cultures were diluted down to OD600 = 0.05 with M9 minimal media + Amp, and 200 µl was added to wells of a 96-well plate containing 1 µl IV-HSL dissolved in DMSO or 1 µl BjaI CFPS reactions (IV-HSL concentrations obtained from serial dilution from 63.2 µM to 632 pM; final DMSO concentration = 0.5%). Cells were incubated at 37 °C, 800 r.p.m., in a thermomixer with a heated lid for 4 h. Fluorescence and OD600 were measured in a Tecan M1000 infinite plate reader (excitation, 488 nm; emission, 510 nm; bandwidth, 5 nm; gain, 101 and z position, 21,311 µm). The dose–response curves were fitted to the function indicated by Eq. (1), where a = maximal fluorescence output, b = basal fluorescence output, X = concentration of AHSL, GFP = fluorescence at the given condition, EC50 = AHSL at 50% maximal fluorescence output and h = hill coefficient. EC50 and h were derived using the nonlinear regression model based on Eq. (1), in MATLAB. A summary of the dose–response data is available in Supplementary Table 1.1 GFP=b+a−b/1+10^logEC50−X×h

[3] = test system: BjaRS107R (B0033|ATG) receiver cells; experiment: as above; conditions: for EC50: IV-HSL-activated gfp expression; for Mean normalised fluorescence / Normalised fluorescence / GFP: sheet 3d; for Normalised fluorescence / GFP: Expt1-3; for GFP: raw fluorescence ex 488/em 510 nm
Description: as §1
In addition to quantifying how these BjaR receiver cells responded to their branched, cognate ligand, we also sought to determine whether the BjaR receiver cells could be activated by structurally dissimilar AHSLs involved in the LuxI/R, EsaI/R, LasI/R and RhlI/R QS systems previously used in synthetic cell communication[5],[7],[8]. To this end, we measured the fluorescence of BjaR receiver cells grown in the presence of their activators, 3OC6-HSL, 3OC12-HSL and C4-HSL, respectively (Supplementary Fig. 13a).
as §2

Q: What does the source list for `CC(C)CC(=O)N[C@H]1CCOC1=O` [IV-HSL, N-isovaleryl-L-homoserine lactone]?
A: Mean normalised fluorescence [1]: 190979; Normalised fluorescence ([1]; Expt1-3): 175106 and 224036 and 173796; GFP ([1]; raw fluorescence ex 488/em 510 nm, Expt1-3): 33963 and 48451 and 56546; EC50 ([2]; Escherichia coli, IV-HSL-activated gfp expression): 2680 ± 480 pM; hill coefficient ([2]; IV-HSL dose-response curve): 1.41; GFP ([2]; Log([ASHL]) -6.5): 43330 and 36104 and 38058; Mean normalised fluorescence ([2]; Log([ASHL]) -6.5): 201726; Normalised fluorescence ([2]; Log([ASHL]) -6.5): 210214 and 194525 and 200438; GFP ([2]; Log([ASHL]) -7): 48602 and 34441 and 36003; Mean normalised fluorescence ([2]; Log([ASHL]) -7): 195635; Normalised fluorescence ([2]; Log([ASHL]) -7): 221814 and 183269 and 181822; GFP ([2]; Log([ASHL]) -7.5): 42248 and 34562 and 36913; Mean normalised fluorescence ([2]; Log([ASHL]) -7.5): 179671; Normalised fluorescence ([2]; Log([ASHL]) -7.5): 188397 and 176029 and 174588; GFP ([2]; Log([ASHL]) -8): 35155 and 35886 and 43108; Mean normalised fluorescence ([2]; Log([ASHL]) -8): 165401; Normalised fluorescence ([2]; Log([ASHL]) -8): 168235 and 168127 and 159840; GFP ([2]; Log([ASHL]) -8.5): 36208 and 37675 and 33945; Mean normalised fluorescence ([2]; Log([ASHL]) -8.5): 139606; Normalised fluorescence ([2]; Log([ASHL]) -8.5): 151871 and 150220 and 116729; Mean normalised fluorescence ([2]; Log([ASHL]) -9): 82973.4; Mean normalised fluorescence ([2]; Log([ASHL]) -9.5): 25740.3; Mean normalised fluorescence ([2]; Log([ASHL]) -10): 6739.8; GFP ([2]; Log([ASHL]) -10.5): 896 and 846 and 722; Mean normalised fluorescence ([2]; Log([ASHL]) -10.5): 2692.26; Normalised fluorescence ([2]; Log([ASHL]) -10.5): 2989.77 and 2763.44 and 2323.58; GFP ([2]; Log([ASHL]) -11): 668 and 631 and 690; Mean normalised fluorescence ([2]; Log([ASHL]) -11): 2167.6; Normalised fluorescence ([2]; Log([ASHL]) -11): 2233.16 and 2007.95 and 2261.7; GFP ([2]; Log([ASHL]) -11.5): 630 and 671 and 595; Mean normalised fluorescence ([2]; Log([ASHL]) -11.5): 2035.58; Normalised fluorescence ([2]; Log([ASHL]) -11.5): 2037.65 and 2202.61 and 1866.48; EC50 ([3]; Escherichia coli): 630 ± 100 pM; EC50 [3]: 600 pM; Mean normalised fluorescence ([3]; Log([ASHL]) -6.5): 211248; Normalised fluorescence ([3]; Log([ASHL]) -6.5): 231337 and 193994 and 208414; GFP ([3]; Log([ASHL]) -6.5): 43152 and 44129 and 37797; Mean normalised fluorescence ([3]; Log([ASHL]) -7): 191564; Normalised fluorescence ([3]; Log([ASHL]) -7): 219307 and 167549 and 187835; GFP ([3]; Log([ASHL]) -7): 41241 and 42932 and 36852; Mean normalised fluorescence ([3]; Log([ASHL]) -7.5): 185367; Normalised fluorescence ([3]; Log([ASHL]) -7.5): 205336 and 163229 and 187535; GFP ([3]; Log([ASHL]) -7.5): 40980 and 43296 and 37356; Mean normalised fluorescence ([3]; Log([ASHL]) -8): 184023; Normalised fluorescence ([3]; Log([ASHL]) -8): 162110 and 183388 and 206570; GFP ([3]; Log([ASHL]) -8): 43713 and 37962 and 41577; Mean normalised fluorescence ([3]; Log([ASHL]) -8.5): 162300; Normalised fluorescence ([3]; Log([ASHL]) -8.5): 147294 and 166971 and 172634; GFP ([3]; Log([ASHL]) -8.5): 45027 and 40097 and 44703; Mean normalised fluorescence ([3]; Log([ASHL]) -9): 128394; Normalised fluorescence ([3]; Log([ASHL]) -9): 124444 and 123486 and 137251; GFP ([3]; Log([ASHL]) -9): 38352 and 35601 and 39674; Mean normalised fluorescence ([3]; Log([ASHL]) -9.5): 61565.3; Normalised fluorescence ([3]; Log([ASHL]) -9.5): 61061.7 and 58710.4 and 64923.7; GFP ([3]; Log([ASHL]) -9.5): 18880 and 16008 and 17944; Mean normalised fluorescence ([3]; Log([ASHL]) -10): 14778.4; Normalised fluorescence ([3]; Log([ASHL]) -10): 13513.8 and 15594 and 15227.4; GFP ([3]; Log([ASHL]) -10): 4242 and 4261 and 4330; Mean normalised fluorescence ([3]; Log([ASHL]) -10.5): 3859.05; Normalised fluorescence ([3]; Log([ASHL]) -10.5): 3719.9 and 3832.44 and 4024.82; GFP ([3]; Log([ASHL]) -10.5): 1247 and 1149 and 1212; Mean normalised fluorescence ([3]; Log([ASHL]) -11): 2518.58; Normalised fluorescence ([3]; Log([ASHL]) -11): 2198.08 and 2463.87 and 2893.8; GFP ([3]; Log([ASHL]) -11): 781 and 756 and 889; Mean normalised fluorescence ([3]; Log([ASHL]) -11.5): 1640.38; Normalised fluorescence ([3]; Log([ASHL]) -11.5): 1511.18 and 1789.62 and 1620.34; GFP ([3]; Log([ASHL]) -11.5): 546 and 584 and 517; sensitivity to IV-HSL relative to BjaRWT (B0033|ATG) ([3]; more sensitive than BjaRWT (B0033|ATG)): > 6 ×; fold activation of gene expression (activation range) ([3]; with vs without IV-HSL): 135 fold
